Reference: patent publication US10092523B2, “Long acting pharmaceutical compositions” (priority 2014, dated 2018)
Values after ≈ are worked out from the molar mass of the structure shown.

Assays:
HIV [1] = settings: cited from earlier work
HIV [2] = experiment: human protein adjusted IC90; format: cell-based; settings: Human immunodeficiency virus 1; reference line in FIG. 1 and FIG. 2

IC90 (HIV [2])	Compound	reduced HIV viral load by a mean of (HIV [1]; patients with trough levels >=20 μg/mL and without key baseline Gag polymorphisms at Q369, V370 or T371)	HIV viral load reduction versus patients without Gag polymorphisms (HIV [1]; users with Gag polymorphisms at Q369, V370 or T371)
	C=C(C)[C@@H]1CC[C@]2(C(=O)O)CC[C@]3(C)[C@H](CC[C@@H]4[C@@]5(C)CC[C@H](OC(=O)CC(C)(C)C(=O)O)C(C)(C)[C@@H]5CC[C@]43C)[C@@H]12 [Bevirimat]	1.3 log10/mL	significantly lower load reductions
4.31 ng/mL (≈ 5.32 nM)	CC(C)C1=C2[C@H]3CC[C@@H]4[C@@]5(C)CC[C@H](OC(=O)CC(C)(C)C(=O)O)C(C)(C)[C@@H]5CC[C@@]4(C)[C@]3(C)CC[C@@]2([C@@H](O)CN(CCN(C)C)Cc2ccc(Cl)cc2)CC1=O [first compound, 4-(((3aR,5aR,5bR,7aR,9S,11aR,11bR,13aS)-3a-((R)-2-((4-Chlorobenzyl)(2-(dimethylamino)ethyl)amino)-1-hydroxyethyl)-1-isopropyl-5a,5b,8,8,11a-pentamethyl-2-oxo-3,3a,4,5,5a,5b, 6,7,7a,8,9,10,11,11a,11b,12,13,13a-octadecahydro-2H-cyclopenta[a]chrysen-9-yl)oxy)-2,2-dimethyl-4-oxobutanoic acid]		
